Values joined by “and” are separate entries in the source; they are usually repeats but may differ in a detail not shown here. Equal values may be shown once.
Assays:
in vitro = conditions: human
[1] = Tannin depletion with hide powder, phenols by Folin-Ciocalteu; conditions: pyrogallol equivalents normalized to untreated sample
[2] = system: H1N1 A/Puerto Rico/8/34-NS116-GFP; assay: Antiviral effect against GFP reporter virus on A549 cells; conditions: for SI (CC50/EC50): CC50 A549 XTT / EC50 reporter virus; for EC50: Influenza A virus, H1N1, A549, 24 h
[3] = system: pandemic H1N1 A/Lux/46/2009; type: cell-based, influenza A virus
[4] = XTT cytotoxicity assay on A549 cells; conditions: human

O=C(O[C@@H]1Cc2c(O)cc(O)cc2O[C@@H]1c1cc(O)c(O)c(O)c1)c1cc(O)c(O)c(O)c1 [EGCG, (−)-epigallocatechin gallate]
CC50 at 24 h (in vitro): 1.03 mM and 472 µg/mL | Remaining phenol content after hide powder treatment [1]: intermediate reduction | SI (CC50/EC50) [2]: 85 | EC50 [2]: 12.1 µM and 5.6 µg/mL | Lower viral titer after virus preincubation [3]: ~7 fold

O=C(O)c1cc(O)c(O)c(O)c1 [Gallic acid, Gallic acid monohydrate]
Remaining phenol content after hide powder treatment [1]: 89 % of untreated | EC50 [2]: 50.8 µM and 9.6 µg/mL | CC50 at 24 h [4]: 770 µM and 145 µg/mL

O=C(OC[C@H]1OC(O)[C@@](O)(COC(=O)c2cc(O)c(O)c(O)c2)[C@@H]1O)c1cc(O)c(O)c(O)c1 (some centres unmarked) [Hamamelitannin, hamamelitannin]
EC50 [2]: > 10 mM

O=C(OC[C@H]1O[C@@H](OC(=O)c2cc(O)c(O)c(O)c2)[C@H](OC(=O)c2cc(O)c(O)c(O)c2)[C@@H](OC(=O)c2cc(O)c(O)c(O)c2)[C@@H]1OC(=O)c1cc(O)c(O)c(O)c1)c1cc(O)c(O)c(O)c1 [Pentagalloylglucose, penta-O-galloyl-β-D-glucose]
SI (CC50/EC50) [2]: 40.0 | SI (CC50/EC50) ([2]; listed as pentagalloylglucose): 40 | EC50 [2]: 19.5 µM and 18.3 µg/mL | CC50 at 24 h [4]: 779 µM and 733 µg/mL

O=C(OC[C@H]1O[C@@H](OC(=O)c2cc(O)c(O)c(OC(=O)c3cc(O)c(O)c(O)c3)c2)[C@H](OC(=O)c2cc(O)c(O)c(OC(=O)c3cc(O)c(O)c(O)c3)c2)[C@@H](OC(=O)c2cc(O)c(O)c(OC(=O)c3cc(O)c(O)c(O)c3)c2)[C@@H]1OC(=O)c1cc(O)c(O)c(OC(=O)c2cc(O)c(O)c(O)c2)c1)c1cc(O)c(O)c(OC(=O)c2cc(O)c(O)c(O)c2)c1 [Tannic acid, tannic acid]
SI (CC50/EC50) [2]: 30.7

— PMC3909258, “Tannins from Hamamelis virginiana Bark Extract: Characterization and Improvement of the Antiviral Efficacy against Influenza A Virus and Human Papillomavirus” (PLoS ONE, 2014)
